Results reported in US6946466B2, “Aromatic sulfonamides as peroxynitrite-rearrangement catalysts” (Schering AG, priority 2003, dated 2005).

Assays:
[1] = test system: primary neuronal cultures from neonatal rat cerebellum; test: SIN-1 damage assay with primary neuronal cultures from neonatal rat cerebellum (Cytotoxicity assay); format: cell-based; settings: protection against SIN-1 damage, test substance 1 h before SIN-1, Alamar blue readout, read-out: Cytotoxicity assay ED50
Source text: SIN-1 Damage Assay with Primary Neuronal Cultures from Neonatal Rat Cerebellum
A primary culture of cells from neonatal rat cerebellum is set up for in vitro testing of substances for neuroprotection against damage induced by peroxy-nitrite. The measurement of cell death or survival of neurons in this culture takes place indirectly through a measurement of the conversion of the dye Alamar blue into its reduced fluorescent form. The peroxynitrite donor SIN-1 (3-morpholinosydnonimine) is used for the damage.
To obtain the cells, Wistar rats (P8) are sacrificed by decapitation, the cerebella are obtained, the meninges are removed from the cerebellum (HBSS (GIBCO, 14025-050) 4° C.), cut up and transferred into a 15 ml Falcon tube, the supernatant is aspirated off, and then the cerebella are trypsinized by adding 500 μl of trypsin/EDTA solution (GIBCO #2530-054)/cerebellum. After incubation (20 min, 37° C.), the trypsinized cerebella are washed 3× with 10 ml of HBSS. This is followed by tritration by addition of 500 μl of 0.05% strength DNAsel (BOEHRINGER MANNHEIM, #14953000) per cerebellum. Using a 5 ml pipette, then a flame-polished Pasteur pipette and finally (if necessary) a drawn-out flame-polished Pasteur pipette, the cells are isolated and mixed with 10 ml of complete medium (100 ml of Neurobasal (GIBCO #21103-049), 1 ml of B27 supplement (GIBCO #17504-044), 0.4 ml of pen/strep (10 000 IU/ml/10 000 UG/ml) (GIBCO #15140-160), 0.8 ml of KCl stock solution (MERCK, 1.04936.0500), 1 ml of L-glutamine (100×-200 mM) (GIBCO #15140-106). The isolated cells are then centrifuged (10 min at 600 rpm), washed 1× with complete medium and resuspended in 20 ml of complete medium, counted and diluted to 2×10^6 ml. 100 μl of complete medium are introduced into each well of a 96-well microtiter plate, and 100 μl of cell suspension are added (=day 1 in vitro). The microtiter plates are previously coated in the following way: 50 μl of poly-L-lysine (MW 70-105 kD) (SIGMA #P-6282) are applied to each well, and the plates are then incubated in an incubator for about 90 min. Before the cells are plated out, the solution is aspirated off again and washed 2× with HBSS and with sterile double-distilled water. 24 h after plating out, the cells are damaged by addition of SIN-1. Test substances are applied 1 h before addition of SIN-1 (single concentration of 10 or 30 μm, or as concentration series, CALBIOCHEM, 567028). Cell function is measured on day 2 (day2 in vitro) with Alamar blue (10 μl/well) (BIOSOURCE INT., DAL1100). Incubation for 3 hours is followed by measurement in a fluorescence reader (Victor, Wallac, extinction 544 nm/emission 590 nm). IC50 values are calculated by the Excel plug-in XLfit.

[2] = Kinetics of the conversion of peroxynitrite into nitrate by UV spectrometry (stopped flow, 301 nm); format: biochemical; settings: peroxynitrite rearrangement relative to spontaneous decomposition without catalyst; catalyst added in one-tenth the stoichiometric amount; UV 301 nm
Procedure: Measurement of the Kinetics of the Conversion of Peroxynitrite into Nitrate by UV Spectrometry
The following are used: a UV spectrometer • a stopped flow device with slotted-on cuvette laboratory apparatus for volumetric work reagents (buffers, peroxynitrite solution, catalysts)
The peroxynitrite content of the concentrated peroxynitrite solution is determined. A molar extinction coefficient of ε=1 670 is used as basis. The solution is diluted with water to reach an absorption of about 1.6 at the observation wavelength of 301 nm. The pH of the stock solution produced in this way should not fall below 11.
A solution of the catalyst to be investigated is prepared in phosphate buffer appropriate for the peroxynitrite concentration set, in such a way that, taking account of the given conditions in the stopped flow device, the desired amounts of catalyst solution and peroxynitrite can be brought together for reaction. The buffer of the catalyst solution must have sufficient capacity for it to be possible for the peroxynitrite solution, which is still strongly alkaline, to be adjusted to, and maintained at, the desired pH. The catalysts are added in one-tenth the stoichiometric amount (FIG. 1).
The metering syringes of the stopped flow system are charged with the two solutions and used to charge the cuvette which is present in the UV spectrometer. The absorptions at 301 nm are measured simultaneously. The rearrangement of peroxynitrite to nitrate results in the decrease in the absorption, which assumes a constant value after some time. The rearrangement is complete at this time, and the data recording is stopped.
The measured data are analyzed, and the peroxynitrite concentration can be calculated from the characteristic kinetic data of the plot resulting therefrom. […] In order to take account of the spontaneous decomposition of peroxynitrite, for each peroxynitrite preparation used initially the decomposition behavior of the peroxynitrite solution is found on addition of the buffer without catalyst content, and the relation between the characteristic data thereof and those obtained from a measurement with catalyst is found. [formula]

[3] = DHR oxidation assay (oxidation of dihydrorhodamine to rhodamine by peroxynitrite); format: biochemical; settings: rhodamine fluorescence 485/520 nm, neutral pH
Procedure: Oxidation of Dihydrorhodamine to Rhodamine
The concentration of peroxynitrite is determined by reaction with dihydrorhodamine (DHR) to give rhodamine. The rhodamine fluorescence emission is measured at 520 nm after excitation with light of a wavelength of 485 nm. Catalytic conversion of peroxynitrite by a test substance leads to a decrease in the peroxynitrite concentration and thus also to a decrease in the rhodamine fluorescence, because less DHR can be converted into rhodamine. The search for peroxynitrite-degrading catalysts is carried out at neutral pH. Peroxynitrite is stable for only a few seconds at neutral pH. It is therefore necessary for peroxynitrite to be kept alkaline until contacted with the test substance and DHR as detection reagent. The search for catalysts takes place by rapid mixing of the following components:
10 μl of 10 μM DHR; • 100 μm diethylenetriaminepentaacetic acid in 75 mM Na phosphate buffer at pH 5.6
5 μl of peroxynitrite in 9 mM NaOH
0.75 μl test substance in 30% DMSO/H2O
The measurement takes place in a standard microtiter plate fluorescence measuring apparatus

Row | SMILES | EC50 [1] | Rate constant [2] | IC50 [3]
1 | Cc1noc(C)c1S(=O)(=O)Nc1ccc(N2CCCC2)cc1 [Example 1, 3,5-dimethylisoxazole-4-sulfonic acid 4-pyrrolidin-1-ylphenylamide] | 4.4 µM | 1.1 | 1.1 µM
2 | Cc1noc(C)c1S(=O)(=O)Nc1ccc(N2CCCC2)cc1C(F)(F)F [Example 2, 3,5-dimethylisoxazole-4-sulfonic acid 4-pyrrolidin-1-yl-2-trifluoromethylphenylamide] | 6.6 µM | 1.3 | 2.4 µM
3 | Cc1noc(C)c1S(=O)(=O)Nc1ccc(N2CCCCC2)cc1 [Example 3, 3,5-dimethylisoxazole-4-sulfonic acid 4-piperidin-1-ylphenylamide] | 5.3 µM | 1.4 | 0.95 µM
4 | O=S(=O)(Nc1ccc(N2CCCCC2)cc1)c1cccc2cccnc12 [Example 4, quinoline-8-sulfonic acid 4-piperidin-1-ylphenylamide] | 8.7 µM | 1.4 | 1.1 µM
5 | COc1cc(N2CCCC2)ccc1NS(=O)(=O)c1cccs1 [Example 5, thiophene-2-sulfonic acid 2-methoxy-4-pyrrolidin-1-ylphenylamide] | 5.9 µM | 1.9 | 8.1 µM
6 | O=S(=O)(Nc1ccc(N2CCCC2)cc1)c1cccc2cccnc12 [Example 6, quinoline-8-sulfonic acid 4-pyrrolidin-1-ylphenylamide] | 5.2 µM | 1.2 | 1.5 µM
7 | CN1CCN(c2ccc(NS(=O)(=O)c3cccs3)cc2)CC1 [Example 7, thiophene-2-sulfonic acid 4-(4-methyl-piperazin-1-yl)phenylamide] | 5.7 µM | 1.3 | 1.9 µM
8 | CN(C)c1ccc(NS(=O)(=O)c2cccs2)c([N+](=O)[O-])c1 [Example 8, thiophene-2-sulfonic acid 4-dimethylamino-2-nitrophenylamide] | 6.4 µM | 1.6 | 1.6 µM
9 | Cc1noc(C)c1S(=O)(=O)Nc1ccc(N(C)C)cc1[N+](=O)[O-] [Example 9, 3,5-dimethylisoxazole-4-sulfonic acid 4-dimethylamino-2-nitrophenylamide] | 8.6 µM | 1.6 | 2 µM
